The target of test [1] is DNA dC->dU-editing enzyme APOBEC-3A (Homo sapiens, UniProt P31941). Description: APOBEC3A DNA deaminase inhibitors, dose response, biochemical (AID 504722). It is filed as functional.
In test [2] the target is DNA dC->dU-editing enzyme APOBEC-3G (Homo sapiens, UniProt Q9HC16). As to the kind of experiment: Dose Response confirmation of small molecule APOBEC3G DNA Deaminase Inhibitors via a fluorescence-based single-stranded DNA deaminase assay. [Related pubchem assays (depositor defined):AID493012, AID493028]. It is filed as functional.
Test [3] deals with T1, Mannose-6-phosphate isomerase (Homo sapiens, UniProt P34949).
T1 sequence (P34949 whole entry): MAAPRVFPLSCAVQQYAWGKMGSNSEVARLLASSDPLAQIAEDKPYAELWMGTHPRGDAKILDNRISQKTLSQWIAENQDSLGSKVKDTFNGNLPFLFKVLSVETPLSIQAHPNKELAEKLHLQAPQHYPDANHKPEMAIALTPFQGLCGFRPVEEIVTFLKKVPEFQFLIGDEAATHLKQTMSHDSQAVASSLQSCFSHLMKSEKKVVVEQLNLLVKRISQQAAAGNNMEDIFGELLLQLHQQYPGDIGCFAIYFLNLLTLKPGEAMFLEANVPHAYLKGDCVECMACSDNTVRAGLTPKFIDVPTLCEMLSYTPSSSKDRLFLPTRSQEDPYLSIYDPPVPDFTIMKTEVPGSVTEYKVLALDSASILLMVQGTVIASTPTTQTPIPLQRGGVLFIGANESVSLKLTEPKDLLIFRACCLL
As to the kind of experiment: human PMI inhibitors, high substrate, primary screen, biochemical, fluorescence intensity, high mannose 6-phosphate (AID 1220).

The nature of test [4]: HEp-2 cell cytotoxicity, dose response, cytotoxicity control for RSV inhibitor project, HTS (AID 2410). The settings on record: human respiratory syncytial virus. It is filed as functional.
Test [5] is described as follows: cells.
Test [6] in a line: inhibitors of SNCA 5'UTR-driven translation, confirmation, luminescence, H4 neuroglioblastoma cells, dose confirmation (AID 2454).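 Note: H4 neuroglioblastoma cells carrying an alpha-synuclein 5'UTR luciferase reporter; potency for inhibition of the luciferase signal.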 It is filed as functional, cell-based.
A short description of test [7]: cytotoxicity toward NIH3T3 fibroblasts, dose response, counter-screen, cell-based, ATP luminescence, mouse fibroblasts (AID 2010).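 Note: cells exposed to compound for about 90 hours before reading.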 It is filed as functional. A general note: Counterscreens check selectivity or assay interference.
Test [8] in a line: inhibitors of firefly luciferase expression or activity, dose response, H4 neuroglioma cells, luminescence (AID 1990). It is filed as functional, cell-based.
Test [9] can be described thus: inhibitors of intracellular T. cruzi replication, confirmation, NIH3T3 host cells, beta-gal luminescence (AID 2044).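 Note: intracellular parasites grown in NIH/3T3 mouse fibroblasts as host cells; luminescent beta-galactosidase reporter signal from transgenic T. cruzi replicating inside host cells; inhibitors lower the luminescence signal.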 It is filed as functional, cell-based.
Test [10] can be described thus: Luminescence Cell-Based Dose Response HTS to Identify Inhibitors of 5'UTR Stem-Loop Driven Prion Protein mRNA Translation in H4 Neuroglioblastoma Cells. [Related pubchem assays: 1827 (Project Summary), 1813 (Primary HTS)]. It is filed as functional.
The nature of test [11]: luciferase reporter signal reduction – luminescence, H4-C neuroglioblastoma cells, dose response (AID 2458).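 Note: H4 neuroglioblastoma cells stably carrying a luciferase reporter gene fusion.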 It is filed as functional, cell-based.
Test [12] deals with BJ. Description: cells. It is filed as functional, cell-based. The settings on record: Homo sapiens.
A short description of test [13]: cytotoxicity toward DRD oncogenic fibroblasts, dose response, cell-based, non-viral oncogenic, luminescence (AID 1934). The settings on record: Homo sapiens. It is filed as functional.
Test [14] addresses FAD-linked sulfhydryl oxidase ALR (Homo sapiens, UniProt P55789). Description: inhibitors of human ALR sulfhydryl oxidase, dose response, biochemical, H2O2 detection, luminescence, cherry-pick (AID 493248).
Test [15] in a line: cells. It is filed as functional, cell-based.
Test [16] relates to BJ. As to the kind of experiment: cytotoxicity toward BJ-TERT-LT-ST fibroblasts, dose response, cell-based, RAS-independent, luminescence (AID 1935).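 Note: BJ fibroblasts immortalized with TERT plus LT and ST oncogenes.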 It is filed as functional. The settings on record: Homo sapiens.
Test [17] is described as follows: inhibitors of SNCA 5'UTR-driven reporter translation, confirmation, H4 neuroglioma cells, luminescence (AID 1988). It is filed as functional, cell-based.
Test [18] relates to BJ. As to the kind of experiment: cytotoxicity toward BJ-TERT fibroblasts, dose response, cell-based, RAS-independent, luminescence (AID 1933). It is filed as functional. The note with it: Homo sapiens.
A short description of test [19]: cytotoxicity in KRAS-transformed pancreatic duct cells, primary screen, cell-based, fluorescence, HTS (AID 431).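 Note: cell line used: HPDE-C7K.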 The note with it: Homo sapiens. It is filed as functional.
Another test concerns Streptococcus. Description: Group A Streptococcus viability loss, dose response, counter-screen for streptokinase expression inhibitor project, luminescence, BacTiterGlo (AID 1915).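 Note: potency for reduction of bacterial viability or growth.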 It is filed as functional, organism-based.
Test [20] deals with Streptococcus sp. 'group A'. As to the kind of experiment: growth inhibition of control SK(-) GAS strain, dose response, counter-screen for streptokinase expression inhibitor project, luminescence, kanamycin, BacTiterGlo, confirmation (AID 1900). It is filed as functional, organism-based.
Test [21] can be described thus: cytotoxicity in HPDE-C7 cells, cell-based, fluorescence, HTS (AID 430). It is filed as functional. The settings on record: Homo sapiens.
In test [22] the target is Eukaryotic translation initiation factor 4E (Mus musculus, UniProt P63073). As to the kind of experiment: eIF4E–eIF4G protein interaction inhibitors, dose response, biochemical, TR-FRET (AID 855).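 Note: potency for disrupting eIF4E binding to eIF4GI seen as loss of FRET.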 It is filed as functional.
The target in test [23] is T2, Carboxy-terminal domain RNA polymerase II polypeptide A small phosphatase 1 (Homo sapiens, UniProt Q9GZU7).
T2 sequence (Q9GZU7 whole entry): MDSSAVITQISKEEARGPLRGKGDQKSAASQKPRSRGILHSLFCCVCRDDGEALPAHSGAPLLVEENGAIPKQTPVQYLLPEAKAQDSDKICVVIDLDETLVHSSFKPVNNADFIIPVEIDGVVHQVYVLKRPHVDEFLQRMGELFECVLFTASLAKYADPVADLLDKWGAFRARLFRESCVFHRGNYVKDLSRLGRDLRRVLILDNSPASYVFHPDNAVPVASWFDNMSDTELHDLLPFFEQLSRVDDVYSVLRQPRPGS
As to the kind of experiment: inhibitors of CTDSP1, concentration-response testing, biochemical assay, absorbance-based, actives from ultra-high-throughput screening (AID 540297). It is filed as functional.

Each structure is given as a SMILES string. Active and inactive are the calls of the source. Cut-off read from the data, not from the text of the source, for most assays here: actives have a measured EC50 and inactives only a lower limit.

Eukaryotic translation initiation factor 4E, sequence (P63073 whole entry, the tested form may be a part): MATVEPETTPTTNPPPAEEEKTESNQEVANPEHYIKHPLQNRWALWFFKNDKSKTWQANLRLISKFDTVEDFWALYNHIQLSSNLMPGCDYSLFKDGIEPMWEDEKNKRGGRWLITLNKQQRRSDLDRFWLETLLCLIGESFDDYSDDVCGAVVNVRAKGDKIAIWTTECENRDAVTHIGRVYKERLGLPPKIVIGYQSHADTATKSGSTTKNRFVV
DNA dC->dU-editing enzyme APOBEC-3G, sequence (Q9HC16 whole entry): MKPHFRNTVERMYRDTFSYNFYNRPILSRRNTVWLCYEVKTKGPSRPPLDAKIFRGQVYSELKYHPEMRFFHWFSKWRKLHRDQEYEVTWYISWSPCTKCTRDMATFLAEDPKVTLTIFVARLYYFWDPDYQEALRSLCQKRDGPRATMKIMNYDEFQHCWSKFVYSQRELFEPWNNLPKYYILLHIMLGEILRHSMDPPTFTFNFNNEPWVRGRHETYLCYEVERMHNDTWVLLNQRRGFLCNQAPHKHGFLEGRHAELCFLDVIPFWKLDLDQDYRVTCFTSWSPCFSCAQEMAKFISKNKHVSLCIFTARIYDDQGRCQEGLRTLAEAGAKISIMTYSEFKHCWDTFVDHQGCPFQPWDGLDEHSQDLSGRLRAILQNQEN
FAD-linked sulfhydryl oxidase ALR, sequence (P55789 whole entry): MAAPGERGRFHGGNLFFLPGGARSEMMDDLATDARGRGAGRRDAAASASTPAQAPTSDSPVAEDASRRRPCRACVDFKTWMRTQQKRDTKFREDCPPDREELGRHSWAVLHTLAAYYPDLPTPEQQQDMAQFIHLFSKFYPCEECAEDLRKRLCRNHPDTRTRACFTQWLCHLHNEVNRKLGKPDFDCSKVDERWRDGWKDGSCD
DNA dC->dU-editing enzyme APOBEC-3A, sequence (P31941 whole entry): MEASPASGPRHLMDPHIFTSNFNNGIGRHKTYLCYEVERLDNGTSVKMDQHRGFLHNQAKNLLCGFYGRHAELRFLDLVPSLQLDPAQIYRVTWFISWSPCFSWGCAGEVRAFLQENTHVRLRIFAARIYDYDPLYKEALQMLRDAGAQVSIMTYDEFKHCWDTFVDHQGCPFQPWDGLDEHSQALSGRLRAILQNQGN

The IC50 is the concentration that inhibits the measured activity by half. Turning to `COc1ccc(OCc2n[nH]c(=S)n2N)cc1`, the IC50 in [1] is > 100 µM (inactive); in test [2] it was 7.1 µM (active); in test [3], 21.4 µM (active).

As a reminder, the CC50 is the concentration at which the toxic effect on the cells reaches its halfway point. As for `COc1ccc(N(CC(=O)NC2CCCCC2)C(=O)c2ccc(C)s2)c(OC)c1`, in test [4], the CC50 is 43.8 µM (active). Besides, in “cells [5]”, the IC50 was 10.9 µM (active).

By EC50 is commonly meant the concentration giving half of the maximal effect. One may read the AC50 as the concentration at which the activity in the assay is half-maximal. Take `COc1ccc(OC)c(Nc2c3c(nc4ccccc24)CCC3)c1`: the EC50 is 1.18 µM (active) in test [6]; 0.432 µM (active) in [7]; 3.29 µM (active) in test [8]; 3.15 µM (active) in [9]; 0.355 µM (active) in [10]; 0.716 µM (active) in [11]. The EC50 with BJ [12] was 15 µM (inconclusive); in test [13], 12.4 µM (active); in “cells [15]” it was 0.804 µM (active); in the test on BJ [16] it was 0.284 µM (inconclusive); in [17], < 0.1 µM (active); in the test on BJ [18], 0.463 µM (active). Also, the concentration at half-maximal activity (AC50) in test [14] was 16.2 µM (active).

For the molecule `C=CCN1C(=O)NC(=O)/C(=C(/CC)Nc2ccc(N(CC)CC)cc2)C1=O`, the EC50 in test [19] is > 20 µM (not active); in the test with Streptococcus, 2.03 µM (active); in test [20], 1.23 µM (active); in test [21], > 20 µM (not active).

Consider `O=C(N/N=C/c1ccc(N2CCOCC2)o1)c1cccc([N+](=O)[O-])c1`, for which the IC50 in test [3] is > 50 µM (not active).

With `COCCCNC(=O)c1ccc(Cn2c(=O)c3ccccc3n(Cc3ccc(C)cc3)c2=O)cc1`, the IC50 in the test “cells [5]” was 2.98 µM (active).

Regarding `CCCc1ccc(Oc2c(C)n[nH]c2-c2ccc(O)c(C)c2O)cc1`, the concentration giving a half-maximal response (EC50) was 4.42 µM (active) in test [19] and 4.88 µM (active) in test [21].

With `O=C(CNc1cccc(C(F)(F)F)c1)N/N=C/c1cn(-c2ccccc2)nc1-c1ccccc1`, the CC50 in [4] is > 50 µM (active). In addition, in the test “cells [5]”, the IC50 was 19.8 µM (active).

In the case of `c1ccc(-c2noc(-c3ccc4ccccc4c3)n2)cc1`, the EC50 was 0.636 µM (active) in test [6]; < 0.1 µM (active) in [8]; 8.76 µM (active) in test [10]; 0.974 µM (active) in test [11]; 0.694 µM (inconclusive) in the test “cells [15]”; < 0.1 µM (active) in [17].

For the molecule `CC(=O)C1=C(c2ccccc2)OC(N)=C(C#N)C1c1ccc(O)cc1` (centres undefined), the IC50 in [22] was > 64 µM (inactive).

Regarding `CCN1CCN(C(=O)C(C)Nc2cc(Cl)c(OC)cc2OC)CC1` (centres undefined), the IC50 in test [3] is > 50 µM (not active).

For the molecule `CCCc1cc(-c2[nH]ncc2-c2ccc3c(c2)OCCCO3)c(O)cc1O`, the EC50 in [19] is 8.05 µM (active); in [21], 8.22 µM (active).

`CC1CCc2nn(CC(=O)N3CCCCCC3)cc2C1` (centres undefined): the IC50 in [22] was > 64 µM (inactive).

As for `Cc1cc(C)c(S(=O)(=O)N2CCCCC2CCNC(=O)C(=O)NC2CC2)c(C)c1` (centres undefined), the CC50 in test [4] is 20.3 µM (active). In addition, the IC50 in “cells [5]” is 4.37 µM (active).

With `COc1ccccc1/C=C/C(=O)NCC(=O)N/N=C(/C)c1ccc(Cl)cc1`, the half-inhibitory concentration (IC50) in “cells [5]” was 25.4 µM (active).

On to `O=C(NCc1ccc(F)cc1)c1c2c(nc3ccccc13)CCC2`, for which the IC50 in [23] is 5.44 µM (active); in [22], 50 µM (inactive).

These data come from ChEMBL document CHEMBL1201862, “PubChem BioAssay data set” (2004).
